The values below come from PubChem BioAssay AID2060620 (Molecular Pharmacology Branch, DTP, NCI, 2025).

The subject of the experiment is 328373-195-R-J1-PDC complex spheroids, viability % test/control. In words: Anticancer human tumor 328373-195-R-J1-PDC patient-derived head and neck squamous carcinoma cell line growth inhibition [CLK]. Particulars: for viability, T/C: stronger effect = lower value. From the text:
A high-throughput screen of multi-cell type tumor spheroids was designed to identify active combinations of […] and targeted small molecules. Complex spheroids include a stromal component modeled by human endothelial cells (HUVEC) and fibroblasts modeled by human mesenchymal stem cells (MSCs). The concentration ranges selected for each drug and investigational agent were based upon clinically achievable concentrations if the clinical Cmax of the agent was known.
Compounds. The drugs and investigational agents: cirtuvivint (SM08502; NSC835563), CC-671 (NSC850746), vemurafenib (NSC761431), tapotoclax (NSC804041), sotorasib (NSC818433), adagrasib (NSC831453), MRTX-1133 (NSC836407), BAY2416964 (NSC825713), copanlisib (NSC816437), inavolisib (NSC800729), abemaciclib (NSC768073), osimertinib (NSC779217), entinostat (NSC756642), eltanexor (KPT-8602, NSC794443), venetoclax (NSC766270), ceralasertib (NSC777638), bortezomib (NSC756655), olaparib (NSC753686), talazoparib (NSC767125), alisertib (NSC759677), peposertib (NSC802822), gemcitabine (NSC613327), 5-fluorouracil (NSC19893), SN-38 (NSC673596), oxaliplatin (NSC266046), paclitaxel (NSC125973), and doxorubicin (NSC123127), were obtained from the National Cancer Institute (NCI) Developmental Therapeutics Program Chemical Repository. The FDA-approved anticancer drug set is available from the Developmental Therapeutics Program at https://dtp.cancer.gov/organization/dscb/obtaining/available plates.htm. […] The stock solutions were prepared in dimethyl sulfoxide (DMSO, Sigma-Aldrich, St. Louis, MO, cat. D2650), except for the platinum complexes which were prepared in saline (Quality Biological, Gaithersburg, MD, cat. 114-055-101), at 800-fold the tested concentration and stored at -70 degrees C prior to their use. All drugs and investigational agents were tested over a range starting from a high concentration at or near the clinical Cmax and decreasing in half-log increments. If the clinical Cmax for an agent had not been determined, the highest concentration tested was 10 microM.
Cell Culture. All cells were maintained in an incubator at 37 degrees C and 5% CO2 with 95% humidity. The PDC lines were cultured according to standard operating procedures established by the NCI PDMR. Briefly, all PDCs were thawed and cultured in Matrigel-coated flasks prepared with a working solution of 1X Ham's F-12 nutrient mix, without supplementation (Invitrogen, Waltham, MA, cat. 11765054), 100 U/mL penicillin-streptomycin (Invitrogen, cat. 15140122), and 2.5% Matrigel (Corning Inc., Corning, NY, cat. 354248) for the first three passages. The 947758-054-R-J2-PDC line was cultured in 6B/Colon 1A media, which includes advanced DMEM/F-12 (Thermo Fisher Scientific, cat. 12634028), 10 mM HEPES (Thermo Fisher Scientific, cat. 15630080), 1X GlutaMAX supplement (Thermo Fisher Scientific, cat. 35050061), 0.1 mg/mL primocin (InvivoGen, cat. ant-pm-2), 10% defined fetal bovine serum, heat inactivated (HyClone Laboratories Inc., cat. SH30070.03HI), 1.25 mM N-Acetyl-L-cysteine (Sigma-Aldrich, cat. A9165), 10 mM nicotinamide (Sigma-Aldrich, cat. N0636), 1X B-27 supplement (Thermo Fisher Scientific, cat. 17504044), 1X N-2 supplement (Thermo Fisher Scientific, cat. 17502048), and 10 microM Y-27632 dihydrochloride (Tocris Bioscience, cat. 1254). The 876862-298-R-J1-PDC was cultured in 6E media, which includes all 6B/Colon 1A media components plus 50% L-WRN conditioned media (ATCC, cat. CRL-3276), 50 ng/mL recombinant human EGF recombinant protein (hEGF; Thermo Fisher Scientific, cat. PHG0311), 10 ng/mL recombinant human fibroblast growth factor 10 (hGFG-10; PeproTech, cat. 100-26), 1 ng/mL recombinant human fibroblast growth factor 2 (hFGF-2; PeproTech, cat. 100-18B), and 1 µM prostaglandin E2 (PGE2; Tocris, cat. 2296). The 227483-062-R1-J1-PDC line was cultured in Panc media, containing all 6E components except hFGF-2, with the addition of 500 nM SB-431542 (Selleckchem, cat. S1067) and 10 nM gastrin (Tocris, cat. 3006). […]

Each structure is given as a SMILES string. “And” between values parts separate entries of the source, which are not always exact repeats. Equal entries are not always repeated. Some results are limits rather than exact numbers.
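Also: spheroids exposed to the agents for 7 days.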

Usually viability, T/C stands for the result in the treated group divided by that in the control group, in per cent. By IC50 is commonly meant the concentration that gives 50% inhibition. Regarding `C#Cc1c(F)ccc2cc(O)cc(-c3ncc4c(N5CC6CCC(C5)N6)nc(OCC56CCCN5CC(F)C6)nc4c3F)c12` (stereo not drawn), the viability, T/C is, setting by setting: (compound 0.0316 µM) 99.7% and 97.3%; (compound 0.1 µM) 85.4% and 93.6%; (compound 0.316 µM) 108% and 98.6%; (compound 1 µM) 96.1% and 92.8%; (compound 3.16 µM) 118% and 111%; (compound 10 µM) 89.6% and 94.6%. The IC50 (curve of compound) was greater than 10 µM.
As for `C=C(F)C(=O)N1CCN(c2nc(OCC3CCCN3C)nc3c2CCN(c2cccc4cccc(Cl)c24)C3)CC1CC#N` (stereo not drawn), the viability, T/C is, setting by setting: (compound 0.0316 µM) 94.1% and 94.7%; (compound 0.1 µM) 89.7% and 93.1%; (compound 0.316 µM) 77.7% and 114%; (compound 1 µM) 90.5% and 84.6%; (compound 3.16 µM) 53.7% and 59.2%; (compound 10 µM) 0.17% and 3%. The IC50 (curve of compound) is 3.42 µM and 3.75 µM.
Regarding `C=CC(=O)N1CCN(c2nc(=O)n(-c3c(C)ccnc3C(C)C)c3nc(-c4c(O)cccc4F)c(F)cc23)C(C)C1` (stereo not drawn), the viability, T/C runs as follows: (compound 0.0316 µM) 84.3% and 93.1%; (compound 0.1 µM) 89.4% and 95.1%; (compound 0.316 µM) 93.2% and 106%; (compound 1 µM) 98.8% and 87.5%; (compound 3.16 µM) 96.5% and 100%; (compound 10 µM) 77.4% and 74.5%. Further, the IC50 (curve of compound) was greater than 10 µM.
As to `C=CC(=O)Nc1cc(Nc2nccc(-c3cn(C)c4ccccc34)n2)c(OC)cc1N(C)CCN(C)C`, the viability, T/C reads like this: (compound 0.000949 µM) 97.9% and 96%; (compound 0.003 µM) 96.8% and 91.2%; (compound 0.00949 µM) 94% and 91.6%; (compound 0.03 µM) 94.2% and 92.4%; (compound 0.0949 µM) 83.8% and 91.1%; (compound 0.3 µM) 91.3% and 84.8%. Besides, under “curve of compound”, the IC50 is greater than 0.3 µM.
For `CC(C)CC(NC(=O)C(Cc1ccccc1)NC(=O)c1cnccn1)B(O)O` (stereo not drawn), the viability, T/C by setting is: (compound 0.000949 µM) 97.8% and 115%; (compound 0.003 µM) 8.65% and 3.9%; (compound 0.00949 µM) 1.43% and 0.2%; (compound 0.03 µM) 1.56% and 0.3%; (compound 0.0949 µM) 0.16%; (compound 0.3 µM) 0.85% and 0.2%. Moreover, the IC50 (curve of compound) was 0.00176 µM and 0.00186 µM.
`CC(CO)NC(=O)c1cc(-c2ccc(Cl)cc2)nn(-c2cnn(C)c2)c1=O` (stereo not drawn): the viability, T/C is 101% and 99.6% (compound 0.0316 µM); 105% and 97% (compound 0.1 µM); 105% and 113% (compound 0.316 µM); 112% and 109% (compound 1 µM); 112% and 119% (compound 3.16 µM); 88.7% and 91.8% (compound 10 µM). Moreover, the IC50 (curve of compound) is greater than 10 µM.
As for `CC(Nc1ccc2c(c1)OCCn1cc(N3C(=O)OCC3C(F)F)nc1-2)C(N)=O` (stereo not drawn), the viability, T/C reads like this: (compound 0.0316 µM) 86% and 91.1%; (compound 0.1 µM) 76.5% and 86.9%; (compound 0.316 µM) 77.7% and 75.1%; (compound 1 µM) 73.9% and 78.2%; (compound 3.16 µM) 53.4% and 56.5%; (compound 10 µM) 40% and 44.6%. Under “curve of compound”, the IC50 was 4.34 µM and 6.46 µM.
For `CC1(C)CCC(CN2CCN(c3ccc(C(=O)NS(=O)(=O)c4ccc(NCC5CCOCC5)c([N+](=O)[O-])c4)c(Oc4cnc5[nH]ccc5c4)c3)CC2)=C(c2ccc(Cl)cc2)C1`, the viability, T/C is, setting by setting: (compound 0.0316 µM) 103% and 85%; (compound 0.1 µM) 88.8% and 76.7%; (compound 0.316 µM) 95.1% and 98.1%; (compound 1 µM) 90% and 84%; (compound 3.16 µM) 81.7% and 74.5%; (compound 10 µM) 25.7% and 8.47%. Further, the IC50 (curve of compound) was 6.04 µM and 4.85 µM.
Consider `CCCS(=O)(=O)Nc1ccc(F)c(C(=O)c2c[nH]c3ncc(-c4ccc(Cl)cc4)cc23)c1F`, for which the viability, T/C is 99.5% and 99.4% (compound 0.0316 µM); 91.2% and 92.6% (compound 0.1 µM); 92.8% and 95.1% (compound 0.316 µM); 91.2% and 83.6% (compound 1 µM); 92.6% and 94.8% (compound 3.16 µM); 82.3% and 109% (compound 10 µM). Also, under “curve of compound”, the IC50 was greater than 10 µM.
On to `CCN1CCN(Cc2ccc(Nc3ncc(F)c(-c4cc(F)c5nc(C)n(C(C)C)c5c4)n3)nc2)CC1`, for which the viability, T/C (compound 0.00316 µM) was 101% and 89.8%; the viability, T/C (compound 0.01 µM) is 77.4% and 78.7%; the viability, T/C (compound 0.0316 µM) was 82.7% and 83.1%; the viability, T/C (compound 0.1 µM) is 77.4% and 78.6%; the viability, T/C (compound 0.316 µM) is 64.9% and 69.7%; the viability, T/C (compound 1 µM) is 59.8% and 52.3%. In addition, the IC50 (curve of compound) is greater than 1 µM.
`CCc1c2c(nc3ccc(O)cc13)-c1cc3c(c(=O)n1C2)COC(=O)[C@]3(O)CC`: the viability, T/C (compound 0.00316 µM) was 12.7% and 12.1%; the viability, T/C (compound 0.01 µM) is 3.27% and 1.07%; the viability, T/C (compound 0.0316 µM) is 1.41% and 1.91%; the viability, T/C (compound 0.1 µM) was 3.19% and 1.33%; the viability, T/C (compound 0.316 µM) is 1.53% and 0.43%; the viability, T/C (compound 1 µM) was 2.07% and 1.46%. In addition, where the note is “curve of compound”, the IC50 was less than 0.00316 µM.
On to `CN1CCN(c2cc(C(=O)Nc3cc4cc(-c5cnn(C)c5)ccc4cn3)ccn2)CC1`, for which the viability, T/C by setting is: (compound 0.0316 µM) 102% [middle of 12 runs]; (compound 0.1 µM) 87.1% [middle of 12 runs]; (compound 0.316 µM) 30.6% [middle of 12 runs]; (compound 1 µM) 2.6% [middle of 12 runs]; (compound 3.16 µM) 1.02% [middle of 12 runs]; (compound 10 µM) 0.18% [middle of 11 runs]. Besides, the half-maximal inhibitory concentration (IC50) (compound alone, run of 08/14/2023) is 209 nM [middle of 12 runs].
Consider `COC1C=CCC(C)C(C)S(=O)(=O)NC(=O)c2ccc3c(c2)N(CC2CCC21)CC1(CCCc2cc(Cl)ccc21)CO3` (stereo not drawn), for which the viability, T/C (compound 0.0316 µM) is 93.3% and 98.1%; the viability, T/C (compound 0.1 µM) was 90.6% and 96.7%; the viability, T/C (compound 0.316 µM) was 101% and 103%; the viability, T/C (compound 1 µM) was 96.7% and 93.2%; the viability, T/C (compound 3.16 µM) was 77.2% and 69.3%. Also, the IC50 (curve of compound) is 8.47 µM and 4.4 µM.
Turning to `COc1c(OCCCN2CCOCC2)ccc2c3n(c(=NC(=O)c4cnc(N)nc4)nc12)CCN3`, the viability, T/C runs as follows: (compound 0.00316 µM) 98.7% and 88.6%; (compound 0.01 µM) 87.2% and 84.5%; (compound 0.0316 µM) 64.5% and 74.9%; (compound 0.1 µM) 51.9% and 66.5%; (compound 0.316 µM) 19.2% and 24.7%; (compound 1 µM) 10.7% and 7.66%. For the same molecule, the 50% inhibitory concentration (IC50) (curve of compound) was 0.0801 µM and 0.152 µM.
In the case of `Cn1ncnc1[C@H]1c2n[nH]c(=O)c3cc(F)cc(c23)N[C@@H]1c1ccc(F)cc1`, the viability, T/C (compound 0.000316 µM) was 98.5% and 113%; the viability, T/C (compound 0.001 µM) is 72.2% and 90.1%; the viability, T/C (compound 0.00316 µM) was 90.6% and 93.4%; the viability, T/C (compound 0.01 µM) is 84.6% and 92.9%; the viability, T/C (compound 0.0316 µM) is 95.3% and 107%; the viability, T/C (compound 0.1 µM) is 73% and 77.7%. In addition, under “curve of compound”, the half-inhibitory concentration (IC50) is greater than 0.1 µM.
For the molecule `NC(=O)C(=Cn1cnc(-c2cc(C(F)(F)F)cc(C(F)(F)F)c2)n1)c1cncnc1`, the viability, T/C is 76.3% and 71.8% (compound 0.00949 µM); 38.3% and 37.8% (compound 0.03 µM); 2.22% and 0.66% (compound 0.0949 µM); 1.05% and 0.37% (compound 0.3 µM); 0.16% and 0.11% (compound 0.949 µM); 1.51% and 0.06% (compound 3 µM). For the same molecule, the half-maximal inhibitory concentration (IC50) (curve of compound) was 0.0211 µM and 0.0198 µM.
`Nc1ccccc1NC(=O)c1ccc(CNC(=O)OCc2cccnc2)cc1`: the viability, T/C reads like this: (compound 0.0316 µM) 87.1% and 84.6%; (compound 0.1 µM) 71.8% and 68.4%; (compound 0.316 µM) 54.6% and 49.4%; (compound 1 µM) 38.6% and 28.9%; (compound 3.16 µM) 31.2% and 21.1%; (compound 10 µM) 7.32% and 4.87%. Further, under “curve of compound”, the IC50 was 0.515 µM and 0.299 µM.
